Assay results as given in US20260027161A1, “BACTERIAL STRAINS FOR TREATING DISEASE” (MICROBA IP PTY LTD, priority 2021, published 2026).

Columns and labels:
[1] = tested on: DSS induced murine colitis; assay: Acute model of DSS induced murine colitis, prophylactic model; type: in vivo, C57BL/6 female mice
Source text: The present inventors hypothesised that the big-data approach could be used to identify novel candidate live biotherapeutics for inflammatory bowel disease. We therefore tested the therapeutic efficacy of I. colisanans MH27-1 in an acute model of DSS induced murine colitis (FIG. 4A) as this is a well-documented model of epithelial injury and repair. […] As expected, prednisone exacerbated the DSS induced weight loss (Yamamoto, 2013), however DSS induced weight loss was ameliorated by treatment with I. colisanans MH27-1 or F. prausnitzii A2-165 (FIG. 4B).
I. colisanans strains were grown to early stationary phase in PYG or YG/V. F. prausnitzii was grown in TY medium. The cell density of the individual cultures was calculated using a Helber Counting Chamber. To prepare the bacterial gavage solutions, individual cultures were centrifuged under a layer of sterile heavy mineral oil at 5,000 g for 10 minutes and the cell-free supernatant was then discarded. The cell pellets were washed in 1.5 ml of sterile anaerobic buffered diluent (38 ml/L each of salt solutions 2 & 3 (McSweeney, 2005), 1 ml/L of 0.1% (w/v) resazurin solution, 1 g/L L-cysteine) and then centrifuged again. […]
For the prophylactic model, six-week-old C57BL/6 female mice purchased from Animal Resources Centres (Western Australia, Australia) were randomised and then co-housed for 7 days prior to experimentation. […] Body weights and stool consistency were recorded daily. […]
Animals were examined with a small animal gastrointestinal endoscope (Karl Storz Endoskope, Tuttlingen, Germany) on days −1, 2 and 6 to assess the extent of colon mucosal inflammation (Marks, 2015; and Liu, 2019). […] To grade colitis severity, the extent of inflammation and epithelial injury in the tissue sections were graded semi-quantitatively using an established scoring system (Table 6). The samples were then randomised and subsequently scored in a blinded by a trained gastrointestinal pathologist.

DSS colitis = assay: Acute mouse model of DSS colitis, therapeutic model (I. colisanans MH27-2); type: in vivo, female C57BL/6 mice; details: 2.5% DSS, daily treatment Day 4 to Day 10
Source text: The therapeutic efficacy of I. colisanans MH27-2 in an acute mouse model of DSS colitis was examined, with prednisone acting as a positive control drug.
For the therapeutic model, groups of 10 or 20 female C57BL/6 mice were used. All animals, except those in the healthy group, were given 2.5% dextran sodium sulfate (DSS) in the drinking water for 6 days total (Day 0 to Day 5). DSS was then withdrawn and replaced with normal drinking water for a further 5 days (Day 6 to Day 10). For the treatments, mice were given once daily oral gavage of 200 μL of I. colisanans MH27-2 at a dose of 2×10^8 viable cells per day, or vehicle consisting of sterile glycerol and phosphate buffered salt solution. The positive control drug prednisone was similarly administered via oral gavage at a dose of 2 mg/kg per day. Treatments started on Day 4 and were given for 7 consecutive days until Day 10. Animals were sacrificed on Day 10 approximately 4 hours after the final treatment. Colon was harvested, rinsed, weighed, photographed, cut longitudinally. Colon tissue was fixed in 4% formalin and kept in 70% ethanol for histopathology using the Swiss-roll method.

[2] = tested on: mild to moderate flares of ulcerative colitis; details: first line therapy; cited from earlier work
[3] = tested on: IL-23-mediated activation of STAT3; assay: IL-23 mediated STAT3 activation, HEK-Blue IL-23 reporter cell line (SEAP); type: cell-based, human
Source text: The present inventors next sought to investigate whether bacterial products naturally produced by the gut bacterium I. colisanans MH27, can modulate IL-23 mediated activation of STAT3. The JAK-STAT immune axis is a recognised and validated drug target for IBD (Salas et al., 2020) and other diseases (McLornan et al., 2021) with JAK-STAT pathway signalling targeted by several approved IBD therapeutics including anti-IL-23 antibodies (e.g., Ustekinumab) and small molecule inhibitors (e.g., tofacitinib) (Hu et al., 2021). As STAT3 suppression can reduce damaging inflammation, I. colisanans MH27 and/or its bioactives could potentially be used as novel immunoregulatory therapies for IBD and other diseases. The present inventors therefore examined whether I. colisanans MH27 can suppress IL-23-mediated activation of STAT3 using the HEK-Blue™ IL-23 reporter cell line. […]
IL-23-mediated STAT3 activity was assessed using the HEK Blue IL-23 cell line (Invivogen). […] SEAP is secreted into the medium and the extent of SEAP expression can be quantified using QUANTI-Blue solution. […]
SEAP production was quantified using QUANTI-BIue™ solution and recorded as optical density (OD) at 630 nm using a PHERAstar FS plate reader (BMG Labtech). […]

[4] = tested on: IL-6 trans signalling mediated activation of STAT3; assay: IL-6/IL-6R trans signalling mediated STAT3 activation, HEK-Blue IL-6 reporter cell line; type: cell-based, human; details: control inhibitor, 10 μM
Source text: (§1) Increased levels of the pro-inflammatory cytokine IL-6 and signalling via its receptor IL-6R is associated with IBD pathogenesis. […] These effects are mediated by IL-6 receptor binding which causes JAK kinase activation and STAT3 dimerization in combination with activation of MAPK/ERK and other downstream kinases. Here, we examined whether I. colisanans MH27-1 and MH27-2 can suppress IL-6 classical and trans signalling mediated activation of STAT3 using the HEK-Blue™ IL-6 reporter cell line. The HEK-Blue™ IL-6 reporter cell line constitutively expresses the human IL-6 receptor and binding of IL-6 to the receptor triggers expression of a STAT3-responsive SEAP reporter. […] Additionally, I. colisanans MH27-2 suppressed IL-6 trans signalling mediated activation of STAT3 (FIG. 6G).
(§2) To assess IL-6 and IL-6/IL-6R-mediated STAT3 suppressive activity, three independent colonies were inoculated and grown until early stationary phase. […]
(§3) IL-6- and IL-6/IL-6R mediated STAT3 activity was assessed using the HEK Blue IL-6 cell line (Invivogen). […] After 24 hours, the STAT3 regulated SEAP reporter activity was assessed using Quanti Blue solution as recommended by the manufacturer (Invivogen). […] Cytotoxicity was assessed using the CellTiter-Glo® 2.0 Cell Viability Assay (Promega, Australia) as recommended by the manufacturer.

[5] = tested on: IL-6 mediated activation of STAT3; assay: IL-6 mediated STAT3 activation, HEK-Blue IL-6 reporter cell line (SEAP); type: cell-based, human; details: control inhibitor, 10 μM
Source text: as §1, §2, §3

[6] = tested on: ZO1 expression in T84 cells; assay: IFNγ-mediated loss of ZO1 expression in T84 cells (immunofluorescence); type: cell-based, human; details: pre-treatment with 1 mM metabolite for 18 hours, IFNγ 48 hours
[7] = DSS treated mice, colon histology

C[C@]12C=CC(=O)C=C1CC[C@@H]1[C@@H]2C(=O)C[C@@]2(C)[C@H]1CC[C@]2(O)C(=O)CO [prednisone]
DSS induced weight loss (body weight) ([1]; 3.5% DSS, daily treatment, compared to DSS+vehicle): exacerbated | disease pathology (histopathological score) [1, 7]: significant improvement in disease pathology | epithelial injury [1, 7]: ameliorated | histological evidence of colitis (DSS colitis): ameliorated

Nc1ccc(O)c(C(=O)O)c1 [Mesalmine]
response rates [2]: 40%-70%

C[C@@H]1CCN(C(=O)CC#N)C[C@@H]1N(C)c1ncnc2[nH]ccc12 [tofacitinib]
IL-23 mediated activation of STAT3 ([3]; control inhibitor, 5 μM): fully prevented | IL-6/IL-6R mediated activation of STAT3 [4]: fully prevented | IL-6 mediated activation of STAT3 [5]: fully prevented

O=C1NC(Cc2ccccc2)C(=O)N2CCCC12 (centres unmarked) [cyclo(-Phe-Pro)]
IL-23 mediated activation of STAT3 ([3]; pure metabolite, relative to the vehicle control): suppressed

O=C(O)C=Cc1c[nH]c2ccccc12 [IAyA, indole-3-acrylic acid]
IFNγ-induced reduction in ZO1 expression [6]: significantly ameliorated

O=C(O)CCc1c[nH]c2ccccc12 [IPA, indole-3-proprionic acid]
IFNγ-induced reduction in ZO1 expression [6]: significantly ameliorated
